Data on one compound can be found in patent US20130197023A1, “NEUROPROTECTION BY PHARMACOLOGICAL CHAPERONING OF NICOTINIC ACETYLCHOLINE RECEPTORS” (priority 2012, published 2013).

The test system of data set [1] is ATF6. The format is cell-based, mouse. Here is the method: Mouse Neuro-2a cells were cultured using standard tissue culture techniques and maintained in 45% DMEM, 45% OptiMEM and 10% FBS. Plasmid concentrations used for transfection were as follows: 500 ng of each nAChR subunit, 75 ng of pCS2-mcherry, 250 ng of Sec24D constructs, 100 ng of pDsRed2-ER, 250 ng of GaIT-eCFP and 500 ng of ATF6-eGFP. 90,000 cells were plated in poly-D-lysine coated 35 mm MatTek glass bottom imaging dishes. The following day, plasmid DNA was mixed with cationic lipids by adding appropriate DNA concentrations to 4 μl of Expressfect transfection reagent in 200 μl DMEM final volume and incubated for 20 min at room temperature to form cationic lipid-DNA complexes. DMEM+DNA-lipid complexes were added to Neuro-2a cells in 1 ml of DMEM+10% FBS and incubated at 37° C. for 4 h. Dishes were rinsed 2× with DMEM, then filled with 3 ml of DMEM+10% FBS and incubated at 37° C. for 48 h. Nicotine, cytisine or DHβE was added at appropriate concentrations during the change of medium following 4 h incubation with Expressfect-plasmid DNA complexes.

For another data set, the system named is eIF2α. To be noted: 24 h, 0.1 μM nicotine; for whole cell and cytoplasmic peIF2α fluorescence: p=0.06. Here is the method:
(§1) Cortical neurons were extracted from day 17 mouse embryos; 150,000 cells were plated in each 35 mm poly-l-lysine-coated glass bottom culture dish in a solution containing Neurobasal, B27, and Glutamax supplemented with 3% equine serum. On day four of culture, neurons were treated with 1 μM cytosine arabinoside. Neurons were maintained via 50% exchange with feeding medium (Neurobasal, B27, and Glutamax) twice per wk. Neurons were transfected five days after plating as follows: 1 μg of each nAChR subunit plasmid was incubated with 20 μg Nupherin Neuron in 400 μl of Neurobasal medium. 10 μL of Lipofectamine 2000 was separately incubated for 15 min in 400 μl Neurobasal medium. The two solutions were combined and incubated for 45 min at room temperature, then applied to cells. After 1 hr incubation, the total medium was replaced with fresh 2 ml medium with or without 0.1 μM nicotine. For immunostaining, cultures were fixed the following day with 4% paraformaldehyde (10 min), permeabilized in 0.02% Tris-buffered saline (TBS)-TritonX (15 min) and blocked in 10% goat serum (30 min). Following 2×TBS washes, the appropriate primary antibody in 1% goat serum was applied overnight at 4° C. The following day cultures were rinsed in TBS, and incubated in 1% goat serum containing secondary antibody (1:5000) (30 min). Cells were rinsed in TBS and imaged immediately.
(§2) Immunostaining employed ATF6 mouse monoclonal (Abcam, 11909, 1:50 dilution), rabbit polyclonal peIF2α and total eIF2α (Cell Signaling Technology, 9721 and 5324, both 1:200 dilution). Alexa 488-labeled secondary antibodies were used (Invitrogen, donkey anti-mouse and goat anti-rabbit).

Data set [2] concerns ATF6. To be noted: 24 hr, 0.1 μM nicotine. Here is the method:
as §1, §2

For the next data set, the system named is Neuro-2a cells. Type of data set: cell-based, mouse. Here is the method:
Neuro-2a cells were transfected with α4-eGFP (500 ng)+β2wt (500 ng)+GaIT-mcherry (250 ng) or pDSred2-ER (100 ng) and cells were incubated for 48 h with appropriate concentrations of nicotine, cytisine or DHβE.
In ImageJ, background was subtracted, and DSred2-ER fluorescence was thresholded and demarcated for each cell.

For data set [3] the following is noted: octanol and water, PubChem Compound; cited from earlier work.
In another data set the target is α4β4 receptors (Mus musculus, UniProt O70174+Q8R493). To be noted: acute nicotine, 1 μM. Here is the method: Additional experiments examined the effect of acute nicotine at a higher concentration (1 μM) on α4β4 receptors as well.
The target of a further data set is α4β2 nAChRs (Mus musculus, UniProt O70174+Q9ERK7).
The target in another data set is T1, α4-eGFPβ2-wt nAChRs (Mus musculus, UniProt O70174+Q9ERK7).
T1 construct: expressed in transfected cells; host or cells: mouse Neuro-2a cells
The format is cell-based. Here is the method: Neuro-2a cells were plated on 12 mm glass coverslips within 35 mm plastic bottom cell culture dishes. The following day, cells were transfected with 500 ng α4-eGFP and 500 ng β2-wt nAChR subunits. 24 to 48 hr later, glass coverslips were transferred to dishes on the microscope stage. Green fluorescence was visualized with an upright microscope (BX50WI, Olympus) and UV illumination with appropriate excitation filters. Agonist-induced currents were tested at a holding potential of −65 mV using a focal, relatively rapid drug application system designed to minimize desensitization (Xiao et al., 2009). We applied drugs from the lowest to highest concentration at 3 min intervals to minimize desensitization. Whole-cell patch-clamp recordings were with a MultiClamp 700B amplifier, a 1322 analog-to-digital converter, and pCLAMP 9.2 software (all from Axon Instruments, Molecular Devices). Data were sampled at 10 kHz and filtered at 2 kHz.
The intrapipette solution contained (in mM): 135 potassium gluconate, 5 KCl, 5 EGTA, 0.5 CaCl2, 10 HEPES, 2 Mg-ATP, and 0.1 GTP; the pH was adjusted to 7.2 with Tris base and the osmolarity to 300 mOsm with sucrose. The extracellular solution contained (in mM): 140 NaCl, 5 KCl, 2 CaCl2, 1 MgCl2, 10 HEPES, and 10 glucose; pH was adjusted to 7.3 with Tris base. The Nernst potential for Cl^− in the intrapipette solution is −82.9 mV. The bath was continuously perfused with extracellular solution (ECS) at room temperature (23±1° C.). The patch electrodes had resistances of 5 to 8 MΩ. The junction potential between the patch pipette and the bath solutions was nulled just before forming a gΩ seal. Series resistance was monitored and compensated by 70-80% throughout recordings. The data were ignored if the series resistance (15-30 MΩ) changed by >20% during the recording session.

Like-named read-outs stand apart in the source and are kept apart here.

α4β2 nAChRs, sequence (O70174 31-629): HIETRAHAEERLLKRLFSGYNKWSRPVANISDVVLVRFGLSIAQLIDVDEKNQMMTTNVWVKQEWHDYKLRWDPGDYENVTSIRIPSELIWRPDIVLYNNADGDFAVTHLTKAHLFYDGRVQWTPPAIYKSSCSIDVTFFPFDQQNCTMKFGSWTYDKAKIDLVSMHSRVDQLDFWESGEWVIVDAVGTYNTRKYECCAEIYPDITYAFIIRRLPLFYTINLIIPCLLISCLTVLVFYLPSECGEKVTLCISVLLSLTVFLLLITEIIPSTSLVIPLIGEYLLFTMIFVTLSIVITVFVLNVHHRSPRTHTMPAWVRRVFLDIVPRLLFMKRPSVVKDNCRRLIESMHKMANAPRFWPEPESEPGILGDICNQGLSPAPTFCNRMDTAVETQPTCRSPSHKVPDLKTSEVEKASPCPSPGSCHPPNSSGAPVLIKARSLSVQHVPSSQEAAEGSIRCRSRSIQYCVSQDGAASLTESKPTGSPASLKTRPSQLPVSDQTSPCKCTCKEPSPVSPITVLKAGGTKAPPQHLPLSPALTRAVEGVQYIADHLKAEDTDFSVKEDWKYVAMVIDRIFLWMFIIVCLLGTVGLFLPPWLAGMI
α4β2 nAChRs, sequence (Q9ERK7 26-501): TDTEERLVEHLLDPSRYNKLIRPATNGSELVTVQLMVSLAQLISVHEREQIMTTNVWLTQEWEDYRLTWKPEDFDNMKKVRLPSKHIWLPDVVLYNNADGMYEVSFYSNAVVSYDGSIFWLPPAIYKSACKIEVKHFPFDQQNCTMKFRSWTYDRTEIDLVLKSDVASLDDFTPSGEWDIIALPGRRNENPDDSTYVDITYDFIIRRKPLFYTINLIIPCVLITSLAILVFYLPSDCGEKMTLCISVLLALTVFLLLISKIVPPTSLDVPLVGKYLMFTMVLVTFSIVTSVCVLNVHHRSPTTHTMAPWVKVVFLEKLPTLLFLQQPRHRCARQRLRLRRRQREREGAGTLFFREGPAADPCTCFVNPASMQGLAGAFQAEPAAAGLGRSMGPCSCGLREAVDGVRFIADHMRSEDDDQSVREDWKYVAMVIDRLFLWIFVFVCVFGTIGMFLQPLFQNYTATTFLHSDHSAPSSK
T1 sequence (O70174 31-629): as the sequence (O70174 31-629) above
T1 sequence (Q9ERK7 26-501): as the sequence (Q9ERK7 26-501) above
α4β4 receptors, sequence (O70174 31-629): as the sequence (O70174 31-629) above
α4β4 receptors, sequence (Q8R493 21-495): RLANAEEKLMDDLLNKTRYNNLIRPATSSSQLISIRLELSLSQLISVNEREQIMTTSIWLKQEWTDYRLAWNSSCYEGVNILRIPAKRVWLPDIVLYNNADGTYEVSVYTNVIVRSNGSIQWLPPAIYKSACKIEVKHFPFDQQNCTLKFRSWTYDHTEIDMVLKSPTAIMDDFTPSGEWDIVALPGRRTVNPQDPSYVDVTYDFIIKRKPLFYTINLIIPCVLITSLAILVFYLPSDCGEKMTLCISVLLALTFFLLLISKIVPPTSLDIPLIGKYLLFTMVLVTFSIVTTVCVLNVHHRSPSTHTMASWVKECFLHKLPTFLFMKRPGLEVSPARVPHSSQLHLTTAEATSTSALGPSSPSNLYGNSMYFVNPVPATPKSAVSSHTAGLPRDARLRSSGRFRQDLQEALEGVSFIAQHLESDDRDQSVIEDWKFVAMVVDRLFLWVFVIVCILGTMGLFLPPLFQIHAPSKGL
Text for α4β2 nAChRs: For NFRET experiments, Neuro-2a cells were transfected with GaIT-eCFP+α4-mcherry+β2-eGFP subunits. GaIT-eCFP was used to label the TG, TGN (Schaub et al., 2006). Cells transfected with α4-mcherryβ2wt or α4wtβ2-eGFP nAChRs were included in every imaging session to control for pixel saturation and spectral bleedthrough. Live cells were imaged using an Eclipse C1si laser scanning confocal microscope. During image acquisition, cells were focused to a plane where the GaIT-eCFP fluorescence was best visualized. Images with emission spectra for eCFP, eGFP and mcherry were acquired in 5-nm bins between 470 and 620 nm. 439, 488 and 561 nm laser lines were used to excite eCFP, eGFP and mcherry respectively. Images were linearly unmixed using reference spectra for eCFP, eGFP and mcherry with emission maxima at 477, 508 and 608 nm. Reference spectra were acquired from Neuro-2a cells transfected with either GaIT-eCFP or α4-mcherryβ2wt or α4wtβ2-eGFP during the same imaging session. Linear unmixing was used to separate all three emission spectra from each image. Linearly unmixed images were compiled into donor spectral bleed-through stacks, acceptor spectral bleed-through stacks, and sample image stacks.
The PixFRET ImageJ plugin was used to determine the eGFP and mcherry spectral bleedthrough (BT) values and to calculate the net FRET (nF) (equation 1) and normalized FRET (NFRET) at each pixel. With the background and bleed-through corrections set, the nF for each pixel as described by equation 1 was calculated and the data were presented as 32-bit images. nF was divided by the square root of eGFP and mcherry intensities (equation 2) to obtain the normalized FRET (NFRET) value at each pixel. FRET normalization was used to control for large differences in fluorophore expression within subcellular regions and between different cells in a dish.
where, nF=net FRET, IFRET=mcherry sensitized emission with 488 nm excitation, IeGFP=eGFP emission with 488 nm excitation, BTeGFP=spectral bleedthrough of eGFP emission into mcherry emission spectra at 488 nm excitation, Imcherry=mcherry emission with 561 nm excitation and BTmcherry=spectral bleedthrough of mcherry emission into eGFP emission spectra at 561 nm excitation. IFRET, IeGFP and Imcherry were obtained from Neuro-2a cells transfected with GaIT-eCFP+α4-mcherry+β2-eGFP. BTeGFP and BTmcherry values were obtained from Neuro-2a cells transfected with α4-mcherry+β2wt and α4wt+β2-eGFP respectively.
Histograms of NFRET (x-axis) versus number of pixels (y-axis) of each imaged cell were compiled for either the whole cell sections or the TG, TGN ROIs, demarcated by intensity-based thresholding of GaIT-eCFP fluorescence. Frequency histograms obtained in this way (omitting values of zero) were merged for all cells in each experimental group and fitted to two Gaussian components such that a minimum goodness of fit (R^2) value of 0.995 was achieved. Ratios of area under the curve for the two Gaussian components with high and low mean NFRET values were used to determine changes in receptor stoichiometry between experimental groups: NFRET histograms were fitted to Gaussian components, yielding the total pixel area under either the A1 (low mean NFRET fit) or A2 (high mean NFRET fit) components. For quantitative measurements of stoichiometry, we compared the fractional area (FA) for the low NFRET component in each case as given by the following equation:
where, FA=fractional area, A1=area under the curve for low mean NFRET Gaussian component and A2=area under the curve for high mean NFRET Gaussian component.
Due to variability resulting from cell passage number, we imaged untreated control cells on the same day to compare and evaluate the effects of drug exposure on stoichiometry.

By logP is commonly meant the decadic logarithm of the partition coefficient of the neutral form, usually between octanol and water. Turning to `CN1CCCC1c1cccnc1` (stereo not drawn) [Nicotine, nicotine], the “reduction in the ratio of nuclear to whole cell ATF6-eGFP fluorescence” value in the data set on ATF6 [1] was about 25%. Moreover, in the data set on eIF2α, the “total eIF2α fluorescence within the cytoplasm or nucleus” value is reported as “did not affect”; the “whole cell and cytoplasmic peIF2α fluorescence” value was “near significant reduction”. In addition, in the data set on eIF2α (listed as nicotine), the “total eIF2α fluorescence within the cytoplasm or nucleus” value is “without affecting”; the “whole cell and cytoplasmic peIF2α fluorescence” value is “trend towards reduction”. The “reduction in the nucleus to whole cell ATF6 fluorescence ratio” value in the data set with ATF6 [2] (compared to untreated cells) came to 50%. Besides, the “α4-mcherryβ2wt-expressing cells showing nuclear ATF6 localization” value in the data set on ATF6 [2] (56% in the absence of nicotine) is 14%. In the data set on Neuro-2a cells, the “effect on peripheral ER area (in words)” value is recorded as “increased” and the “increase in the average ER area” value amounted to 1.7 fold. Besides, the logP in data set [3] is 1.1. Besides, the “Fnic/F0 (SEP fluorescence, receptors in the membrane)” value on α4β4 receptors is on record as 65%+/−0.03. Moreover, at α4β2 nAChRs, the “TG+TGN FA (fractional area of low NFRET component)” value stood at 0.80 and the “whole cell FA (fractional area of low NFRET component)” value was determined as 0.74. At α4-eGFPβ2-wt nAChRs, the “evoked currents as % of maximum currents induced by 500 μM nicotine” value came to 0.44±0.07% and the “fraction of the total receptor population activated” value is recorded as 0.4%.
